Results taken from the supplement of paper PMC4862054.

What was measured:
Settings in all cases: incubation time: 72 h
MDA-MB-453 [1] = assay: normalised response (% of control), CellTiter-Glo; higher = more viable cells (100 = DMSO, 0 = benzethonium chloride kill control)
Procedure, shortened: (§1)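 Normalised signals at single concentrations make up the values. They come from breast cancer cell lines seeded (20 µl suspension) into 384-well plates with compound at 5 concentrations in 10-fold steps over a compound-specific 10,000-fold range, incubated 72 h, and read for CellTox Green fluorescence then CellTiter-Glo luminescence. Each plate was normalised to 0.1 % DMSO (100) and a positive kill control (0).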

CAL-51 [2] = assay: as above
Procedure, shortened: as §1

CAL-148 [3] = assay: as above
Procedure, shortened: as §1

HCC1937 [4] = assay: as above
Procedure, shortened: as §1

HCC1143 [5] = assay: as above
Procedure, shortened: as §1

MDA-MB-436 [6] = assay: as above
Procedure, shortened: as §1

MDA-MB-231 [7] = assay: as above
Procedure, shortened: as §1

Hs578T [8] = assay: as above
Procedure, shortened: as §1

SK-BR-3 = assay: as above
Procedure, shortened: as §1

MDA-MB-468 [9] = assay: as above
Procedure, shortened: as §1

HCC1599 [10] = assay: as above
Procedure, shortened: as §1

BT-549 [11] = assay: as above
Procedure, shortened: as §1

MCF-10A [12] = assay: as above
Procedure, shortened: as §1

HDQ-P1 [13] = assay: as above
Procedure, shortened: as §1

CAL-85-1 [14] = assay: as above
Procedure, shortened: as §1

DU-4475 [15] = assay: as above
Procedure, shortened: as §1

BT-474 [16] = assay: as above
Procedure, shortened: as §1

MFM-223 [17] = assay: as above
Procedure, shortened: as §1

CAL-120 [18] = assay: as above
Procedure, shortened: as §1

MDA-MB-453 [19] = assay: normalised response (% of control), CellTox Green; higher = less cell death (100 = DMSO, 0 = benzethonium chloride kill control)
Procedure, shortened: as §1

CAL-51 [20] = assay: as above
Procedure, shortened: as §1

CAL-148 [21] = assay: as above
Procedure, shortened: as §1

HCC1937 [22] = assay: as above
Procedure, shortened: as §1

HCC1143 [23] = assay: as above
Procedure, shortened: as §1

MDA-MB-436 [24] = assay: as above
Procedure, shortened: as §1

MDA-MB-231 [25] = assay: as above
Procedure, shortened: as §1

Hs578T [26] = assay: as above
Procedure, shortened: as §1

MDA-MB-468 [27] = assay: as above
Procedure, shortened: as §1

HCC1599 [28] = assay: as above
Procedure, shortened: as §1

BT-549 [29] = assay: as above
Procedure, shortened: as §1

MCF-10A [30] = assay: as above
Procedure, shortened: as §1

HDQ-P1 [31] = assay: as above
Procedure, shortened: as §1

CAL-85-1 [32] = assay: as above
Procedure, shortened: as §1

DU-4475 [33] = assay: as above
Procedure, shortened: as §1

BT-474 [34] = assay: as above
Procedure, shortened: as §1

MFM-223 [35] = assay: as above
Procedure, shortened: as §1

CAL-120 [36] = assay: as above
Procedure, shortened: as §1

| SMILES | normalised response (MDA-MB-453 [1]) | normalised response (CAL-51 [2]) | normalised response (CAL-148 [3]) | normalised response (HCC1937 [4]) | normalised response (HCC1143 [5]) | normalised response (MDA-MB-436 [6]) | normalised response (MDA-MB-231 [7]) | normalised response (Hs578T [8]) | normalised response (SK-BR-3) | normalised response (MDA-MB-468 [9]) | normalised response (HCC1599 [10]) | normalised response (BT-549 [11]) | normalised response (MCF-10A [12]) | normalised response (HDQ-P1 [13]) | normalised response (CAL-85-1 [14]) | normalised response (DU-4475 [15]) | normalised response (BT-474 [16]) | normalised response (MFM-223 [17]) | normalised response (CAL-120 [18]) | normalised response (MDA-MB-453 [19]) | normalised response (CAL-51 [20]) | normalised response (CAL-148 [21]) | normalised response (HCC1937 [22]) | normalised response (HCC1143 [23]) | normalised response (MDA-MB-436 [24]) | normalised response (MDA-MB-231 [25]) | normalised response (Hs578T [26]) | normalised response (MDA-MB-468 [27]) | normalised response (HCC1599 [28]) | normalised response (BT-549 [29]) | normalised response (MCF-10A [30]) | normalised response (HDQ-P1 [31]) | normalised response (CAL-85-1 [32]) | normalised response (DU-4475 [33]) | normalised response (BT-474 [34]) | normalised response (MFM-223 [35]) | normalised response (CAL-120 [36]) |
| --- | --- | --- | --- | --- | --- | --- | --- | --- | --- | --- | --- | --- | --- | --- | --- | --- | --- | --- | --- | --- | --- | --- | --- | --- | --- | --- | --- | --- | --- | --- | --- | --- | --- | --- | --- | --- | --- |
| COc1ccc(-c2cc3c(C)nc(N)nc3n([C@H]3CC[C@H](OCCO)CC3)c2=O)cn1 (100 nM) | 55.7% | 53.4% | 74.5% | 74.5% | 76.8% | 77% | 64.8% | 73.7% | 42% | 68.8% | 88.3% | 69.5% | 58% | 66.3% | 68.9% | 83.2% | 67.2% | 72.3% | 67.7% | 98.1% | 85.1% | 80.1% | 107% | 66.1% | 97.9% | 37.5% | 89.6% | 31% | 90.3% | 112% | 85.6% | 88.6% | 91.3% | 96.2% | 94.4% | 96.2% | 95.7% |
| CC/C(=C(\c1ccc(O)cc1)c1ccc(OCCN(C)C)cc1)c1ccccc1 [4-hydroxytamoxifen] (100 nM) | 111% | 99% | 99.9% | 95% | 96.2% | 94.9% | 100% | 98% | 101% | 93.2% | 91.5% | 107% | 106% | 95.9% | 105% | 104% | 99.1% | 99.1% | 105% | 111% | 98.1% | 99.1% | 89.2% | 115% | 108% | 117% | 50.3% | 106% | 114% | 104% | 93% | 87.3% | 113% | 108% | 105% | 106% | 98.8% |
| O=C(Nc1c[nH]nc1-c1nc2ccc(CN3CCOCC3)cc2[nH]1)NC1CC1 [AT9283] (10 nM) | 97.1% | 67.3% | 105% | 98.1% | 109% | 105% | 100% | 101% | 93.5% | 96.6% | 95.2% | 94.1% | 96.9% | 101% | 94.8% | 101% | 93.8% | 98.2% | 103% | 103% | 61.2% | 106% | 123% | 108% | 103% | 98.2% | 89.3% |  | 115% | 105% | 91.8% | 115% | 102% | 101% | 102% | 53.1% | 97.7% |
| COc1cc(CCc2cc(NC(=O)c3ccc(N4CC(C)NC(C)C4)cc3)n[nH]2)cc(OC)c1 (stereo not given) [AZD4547] (10 nM) | 95.7% | 111% | 99.5% | 94.8% | 99.3% | 105% | 96.4% | 89.8% | 92.3% | 98.3% | 104% | 98.4% | 90.3% | 98.9% | 103% | 88.8% | 106% | 70.8% | 95.8% | 104% | 95% | 51.3% | 82.4% | 91.2% | 55.9% | 94.2% | 103% | 158% | 93.9% | 106% | 79.9% | 104% | 99.2% | 98.2% | 95.9% | 92.8% | 102% |
| CO[C@@H](C(=O)N1Cc2[nH]nc(NC(=O)c3ccc(N4CCN(C)CC4)cc3)c2C1)c1ccccc1 [Danusertib] (100 nM) | 133% | 82.5% | 57.7% | 96.8% | 91.4% | 101% | 94.8% | 97% | 82.5% | 50.5% | 105% | 92.7% | 84.6% | 96.4% | 95.5% | 100% | 98.6% | 67.1% | 89% | 97.7% | 62.2% | 69.4% | 93.8% | 111% | 98.2% |  | 98.2% | 69.6% | 102% | 101% | 108% | 109% | 86.5% | 97.1% | 99% | 104% | 97.5% |
| Nc1cccc2c1CN(C1CCC(=O)NC1=O)C2=O (stereo not given) [Lenalidomide] (100 nM) | 103% | 69.2% | 105% | 95.3% | 99.1% | 93.2% | 94.3% | 101% | 98.4% | 111% | 111% | 103% | 99.3% | 102% | 100% | 104% | 103% | 103% | 93.3% | 100% | 76.4% | 104% |  | 92.4% | 107% | 105% | 109% | 102% | 107% | 99.6% | 77.9% | 100% | 101% | 101% | 101% | 107% | 97.4% |
| Nc1ccccc1NC(=O)c1ccc(CNc2nccc(-c3cccnc3)n2)cc1 [Mocetinostat] (100 nM) | 99.4% | 78.3% | 99% | 86.1% | 102% | 90.7% | 97.5% | 93.2% | 115% | 90.6% | 97.2% | 106% | 157% | 88.7% | 93.3% | 107% | 91.5% | 92.6% | 102% | 98.1% | 82% |  |  | 101% | 96.4% | 89.2% | 112% | 104% | 95.8% | 99.1% | 93.1% | 104% | 97.4% | 99.1% | 99.1% | 97.5% | 93.3% |
| Cc1ccc(Nc2nccc(N(C)c3ccc4c(C)n(C)nc4c3)n2)cc1S(N)(=O)=O [Pazopanib] (100 nM) | 108% | 96.7% | 112% | 99% | 105% | 103% | 98.7% | 103% | 100% | 104% | 103% | 102% | 97.3% | 101% | 104% | 100% | 107% | 103% | 95.9% | 97.4% | 104% | 96% | 66.2% | 98% | 94.2% | 100% | 107% |  | 112% | 98.1% | 72.7% | 109% | 103% | 101% | 96.2% | 104% | 95% |
